Results reported in US20250059171A1 (Hoffmann-La Roche Inc., priority 2021, published 2025).

Tests used:
[1] = molecular target: HCoV-229E 3CLpro (Human coronavirus 229E, UniProt P0C6X1); experiment: HCoV-229E 3CLpro inhibition assay (FRET); type: biochemical
[2] = molecular target: SARS-CoV 3CLpro (Severe acute respiratory syndrome coronavirus, UniProt P0C6X7); experiment: biochemical
[3] = molecular target: MERS-CoV 3CLpro (Middle East respiratory syndrome-related coronavirus, UniProt K9N7C7); experiment: biochemical
[4] = molecular target: SARS-CoV-2 3CLpro (Severe acute respiratory syndrome coronavirus 2, UniProt P0DTD1); experiment: biochemical

Chain of HCoV-229E 3CLpro (P0C6X1 2966-3267): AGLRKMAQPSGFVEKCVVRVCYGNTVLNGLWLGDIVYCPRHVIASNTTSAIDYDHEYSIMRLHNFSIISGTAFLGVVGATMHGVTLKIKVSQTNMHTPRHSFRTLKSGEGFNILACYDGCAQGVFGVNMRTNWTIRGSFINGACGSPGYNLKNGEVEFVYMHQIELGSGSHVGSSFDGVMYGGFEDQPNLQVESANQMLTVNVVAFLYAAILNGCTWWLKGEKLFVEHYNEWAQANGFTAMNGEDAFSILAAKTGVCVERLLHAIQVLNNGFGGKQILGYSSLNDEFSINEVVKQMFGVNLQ
Chain of MERS-CoV 3CLpro (K9N7C7 3248-3553): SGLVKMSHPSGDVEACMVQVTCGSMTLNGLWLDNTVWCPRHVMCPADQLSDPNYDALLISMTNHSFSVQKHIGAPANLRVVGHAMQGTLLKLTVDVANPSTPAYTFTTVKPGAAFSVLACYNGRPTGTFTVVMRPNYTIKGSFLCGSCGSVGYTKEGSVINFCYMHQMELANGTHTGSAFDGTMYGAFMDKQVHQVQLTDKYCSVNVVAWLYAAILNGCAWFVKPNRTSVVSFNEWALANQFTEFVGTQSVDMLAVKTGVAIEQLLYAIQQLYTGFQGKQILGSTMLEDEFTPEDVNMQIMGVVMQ

## CC[C@H](C)[C@H](NC(=O)C1(F)CC1)C(=O)N1C[C@@H]2CCC[C@@H]2[C@H]1C(=O)NN(C[C@@H]1CCNC1=O)C(=O)[C@H](F)Cl [Example 79, N-[(1S,2S)-1-[(3S,3aS,6aR)-3-[[[(2R)-2-chloro-2-fluoro-acetyl]-[[(3S)-2-oxopyrrolidin-3-yl]methyl]amino]carbamoyl]-3,3a,4,5,6,6a-hexahydro-1H-cyclopenta[c]pyrrole-2-carbonyl]-2-methyl-butyl]-1-fluoro-cyclopropanecarboxamide]
[1]
  IC50: 39 nM
[2]
  IC50: 11 nM
[3]
  IC50: 114 nM
[4]
  IC50: 7.1 nM

## CC[C@H](C)[C@H](NC(=O)c1ccccc1)C(=O)N1C[C@@H]2CCC[C@@H]2[C@H]1C(=O)NN(C[C@@H]1CCNC1=O)C(=O)[C@H](F)Cl [Example 80, N-[(1S,2S)-1-[(3S,3aS,6aR)-3-[[[(2R)-2-chloro-2-fluoro-acetyl]-[[(3S)-2-oxopyrrolidin-3-yl]methyl]amino]carbamoyl]-3,3a,4,5,6,6a-hexahydro-1H-cyclopenta[c]pyrrole-2-carbonyl]-2-methyl-butyl]benzamide]
[1]
  IC50: 20 nM
[2]
  IC50: 11 nM
[3]
  IC50: 58 nM
[4]
  IC50: 10 nM

## CC[C@H](C)[C@H](NC(C)=O)C(=O)N1C[C@@H]2CCC[C@@H]2[C@H]1C(=O)NN(C[C@@H]1CCNC1=O)C(=O)[C@H](F)Cl [Example 81, N-[(1S,2S)-1-[(3S,3aS,6aR)-3-[[[(2R)-2-chloro-2-fluoro-acetyl]-[[(3S)-2-oxopyrrolidin-3-yl]methyl]amino]carbamoyl]-3,3a,4,5,6,6a-hexahydro-1H-cyclopenta[c]pyrrole-2-carbonyl]-2-methyl-butyl]acetamide]
[1]
  IC50: 45 nM
[2]
  IC50: 15 nM
[3]
  IC50: 93 nM
[4]
  IC50: 9 nM

## CC(C)(C)[C@H](NC(=O)C1(F)CC1)C(=O)N1C[C@@H]2CCC[C@@H]2[C@H]1C(=O)NN(C[C@@H]1CCNC1=O)C(=O)[C@H](F)Cl [Example 82, N-[(1S)-1-[(3S,3aS,6aR)-3-[[[(2R)-2-chloro-2-fluoro-acetyl]-[[(3S)-2-oxopyrrolidin-3-yl]methyl]amino]carbamoyl]-3,3a,4,5,6,6a-hexahydro-1H-cyclopenta[c]pyrrole-2-carbonyl]-2,2-dimethyl-propyl]-1-fluoro-cyclopropanecarboxamide]
[1]
  IC50: 33 nM
[2]
  IC50: 12 nM
[3]
  IC50: 84 nM
[4]
  IC50: 8 nM

## CC(C)(C)[C@H](NC(=O)C1(F)CC1)C(=O)N1C[C@H]2[C@@H]([C@H]1C(=O)NN(C[C@@H]1CCNC1=O)C(=O)[C@H](F)Cl)C2(C)C [Example 83, N-[(1S)-1-[(1R,2S,5S)-2-[[[(2R)-2-chloro-2-fluoro-acetyl]-[[(3S)-2-oxopyrrolidin-3-yl]methyl]amino]carbamoyl]-6,6-dimethyl-3-azabicyclo[3.1.0]hexane-3-carbonyl]-2,2-dimethyl-propyl]-1-fluoro-cyclopropanecarboxamide]
[1]
  IC50: 31 nM
[2]
  IC50: 10 nM
[3]
  IC50: 97 nM
[4]
  IC50: 9 nM

## CC(F)(F)C(=O)N[C@H](C(=O)N1C[C@H]2[C@@H]([C@H]1C(=O)NN(C[C@@H]1CCNC1=O)C(=O)[C@@H](F)Cl)C2(C)C)C(C)(C)C [Example 85, N-[(1S)-1-[(1R,2S,5S)-2-[[[(2S)-2-chloro-2-fluoro-acetyl]-[[(3S)-2-oxopyrrolidin-3-yl]methyl]amino]carbamoyl]-6,6-dimethyl-3-azabicyclo[3.1.0]hexane-3-carbonyl]-2,2-dimethyl-propyl]-2,2-difluoro-propanamide]
[1]
  IC50: 21 nM
[2]
  IC50: 12 nM
[3]
  IC50: 69 nM
[4]
  IC50: 12 nM

## CCC(C)(C)[C@H](NC(=O)C(F)(F)F)C(=O)N1C[C@H]2[C@@H]([C@H]1C(=O)NN(C[C@@H]1CCNC1=O)C(=O)[C@H](F)Cl)C2(C)C [Example 86, N-[(1S)-1-[(1R,2S,5S)-2-[[[(2R)-2-chloro-2-fluoro-acetyl]-[[(3S)-2-oxopyrrolidin-3-yl]methyl]amino]carbamoyl]-6,6-dimethyl-3-azabicyclo[3.1.0]hexane-3-carbonyl]-2,2-dimethyl-butyl]-2,2,2-trifluoro-acetamide]
[1]
  IC50: 35 nM
[2]
  IC50: 19 nM
[3]
  IC50: 86 nM
[4]
  IC50: 7 nM

## CC(C)(C)[C@H](NC(=O)C(F)(F)F)C(=O)N1C[C@H]2[C@@H]([C@H]1C(=O)NN(CCC(N)=O)C(=O)[C@H](F)Cl)C2(C)C [Example 87, 3-[[(2R)-2-chloro-2-fluoro-acetyl]-[[(1R,2S,5S)-3-[(2S)-3,3-dimethyl-2-[(2,2,2-trifluoroacetyl)amino]butanoyl]-6,6-dimethyl-3-azabicyclo[3.1.0]hexane-2-carbonyl]amino]amino]propanamide]
[1]
  IC50: 19 nM
[2]
  IC50: 9.3 nM
[3]
  IC50: 73 nM
[4]
  IC50: 14 nM

## CC(C)(C)[C@H](NC(=O)C1CC(F)(F)C1)C(=O)N1C[C@H]2[C@@H]([C@H]1C(=O)NN(C[C@@H]1CCNC1=O)C(=O)[C@H](F)Cl)C2(C)C [Example 90, N-[(1S)-1-[(1R,2S,5S)-2-[[[(2R)-2-chloro-2-fluoro-acetyl]-[[(3S)-2-oxopyrrolidin-3-yl]methyl]amino]carbamoyl]-6,6-dimethyl-3-azabicyclo[3.1.0]hexane-3-carbonyl]-2,2-dimethyl-propyl]-3,3-difluoro-cyclobutanecarboxamide]
[1]
  IC50: 22 nM
[2]
  IC50: 12 nM
[3]
  IC50: 55 nM
[4]
  IC50: 10 nM

## CC(C)(C)[C@H](NC(=O)C1(F)CCC1)C(=O)N1C[C@H]2[C@@H]([C@H]1C(=O)NN(C[C@@H]1CCNC1=O)C(=O)[C@H](F)Cl)C2(C)C [Example 91, N-[(1S)-1-[(1R,2S,5S)-2-[[[(2R)-2-chloro-2-fluoro-acetyl]-[[(3S)-2-oxopyrrolidin-3-yl]methyl]amino]carbamoyl]-6,6-dimethyl-3-azabicyclo[3.1.0]hexane-3-carbonyl]-2,2-dimethyl-propyl]-1-fluoro-cyclobutanecarboxamide]
[1]
  IC50: 39 nM
[2]
  IC50: 15 nM
[3]
  IC50: 115 nM
[4]
  IC50: 12 nM

## CC(C)(C)[C@H](NC(=O)[C@@H]1CC1(F)F)C(=O)N1C[C@H]2[C@@H]([C@H]1C(=O)NN(C[C@@H]1CCNC1=O)C(=O)[C@H](F)Cl)C2(C)C [Example 92, (1S)—N-[(1S)-1-[(1R,2S,5S)-2-[[[(2R)-2-chloro-2-fluoro-acetyl]-[[(3S)-2-oxopyrrolidin-3-yl]methyl]amino]carbamoyl]-6,6-dimethyl-3-azabicyclo[3.1.0]hexane-3-carbonyl]-2,2-dimethyl-propyl]-2,2-difluoro-cyclopropanecarboxamide]
[1]
  IC50: 23 nM
[2]
  IC50: 18 nM
[3]
  IC50: 57 nM
[4]
  IC50: 8 nM

## CC(C)(C)[C@H](NC(=O)C1CC(F)(F)C1)C(=O)N1C[C@H]2[C@@H]([C@H]1C(=O)NN(C[C@@H]1CCNC1=O)C(=O)[C@@H](F)Cl)C2(C)C [Example 93, N-[(1S)-1-[(1R,2S,5S)-2-[[[(2S)-2-chloro-2-fluoro-acetyl]-[[(3S)-2-oxopyrrolidin-3-yl]methyl]amino]carbamoyl]-6,6-dimethyl-3-azabicyclo[3.1.0]hexane-3-carbonyl]-2,2-dimethyl-propyl]-3,3-difluoro-cyclobutanecarboxamide]
[1]
  IC50: 42 nM
[2]
  IC50: 54 nM
[3]
  IC50: 94 nM
[4]
  IC50: 31 nM

## CC(C)(C)[C@H](NC(=O)C1(F)CC1)C(=O)N1C[C@H]2[C@@H]([C@H]1C(=O)NN(C[C@@H]1CCNC1=O)C(=O)[C@@H](F)Cl)C2(C)C [Example 94, N-[(1S)-1-[(1R,2S,5S)-2-[[[(2S)-2-chloro-2-fluoro-acetyl]-[[(3S)-2-oxopyrrolidin-3-yl]methyl]amino]carbamoyl]-6,6-dimethyl-3-azabicyclo[3.1.0]hexane-3-carbonyl]-2,2-dimethyl-propyl]-1-fluoro-cyclopropanecarboxamide]
[1]
  IC50: 59 nM
[2]
  IC50: 29 nM
[3]
  IC50: 136 nM
[4]
  IC50: 21 nM

## CC(C)(C)[C@H](NC(=O)[C@@H]1CC1(F)F)C(=O)N1C[C@H]2[C@@H]([C@H]1C(=O)NN(C[C@@H]1CCNC1=O)C(=O)[C@@H](F)Cl)C2(C)C [Example 95, (1S)—N-[(1S)-1-[(1R,2S,5S)-2-[[[(2S)-2-chloro-2-fluoro-acetyl]-[[(3S)-2-oxopyrrolidin-3-yl]methyl]amino]carbamoyl]-6,6-dimethyl-3-azabicyclo[3.1.0]hexane-3-carbonyl]-2,2-dimethyl-propyl]-2,2-difluoro-cyclopropanecarboxamide]
[1]
  IC50: 28 nM
[2]
  IC50: 14 nM
[3]
  IC50: 71 nM
[4]
  IC50: 10 nM

## CC(C)(C)[C@H](NC(=O)[C@H]1CC1(F)F)C(=O)N1C[C@H]2[C@@H]([C@H]1C(=O)NN(C[C@@H]1CCNC1=O)C(=O)[C@@H](F)Cl)C2(C)C [Example 96, (1R)—N-[(1S)-1-[(1R,2S,5S)-2-[[[(2S)-2-chloro-2-fluoro-acetyl]-[[(3S)-2-oxopyrrolidin-3-yl]methyl]amino]carbamoyl]-6,6-dimethyl-3-azabicyclo[3.1.0]hexane-3-carbonyl]-2,2-dimethyl-propyl]-2,2-difluoro-cyclopropanecarboxamide]
[1]
  IC50: 25 nM
[2]
  IC50: 14 nM
[3]
  IC50: 63 nM
[4]
  IC50: 11 nM

## CC(C)(C)[C@H](NC(=O)C1(F)CCC1)C(=O)N1C[C@@H]2CCC[C@@H]2[C@H]1C(=O)NN(C[C@@H]1CCNC1=O)C(=O)[C@H](F)Cl [Example 97, N-[(1S)-1-[(3S,3aS,6aR)-3-[[[(2R)-2-chloro-2-fluoro-acetyl]-[[(3S)-2-oxopyrrolidin-3-yl]methyl]amino]carbamoyl]-3,3a,4,5,6,6a-hexahydro-1H-cyclopenta[c]pyrrole-2-carbonyl]-2,2-dimethyl-propyl]-1-fluoro-cyclobutanecarboxamide]
[1]
  IC50: 74 nM
[2]
  IC50: 13 nM
[3]
  IC50: 208 nM
[4]
  IC50: 11 nM
